Test results reported in patent publication US20060167094A1, “Satiety agent” (priority 2005, published 2006).

Assays:
Format in all cases: in vivo, human
plasma GLP-1 = test: Plasma GLP-1 concentrations by radioimmunoassay
Description: (§1) Once the catheter was positioned correctly, fasting motility was monitored until the occurrence of phase III of the interdigestive migrating motor complex (MMC). Immediately after the cessation of phase III activity [at time t=−15 min], a baseline venous blood sample was taken, and a visual analog scale questionnaire (VAS) (see Measurements), assessing appetite-related sensations, was administered. At t=0 min (i.e., during phase I of the MMC), the duodenal infusion of 1) C12, 2) C10, or 3) control solution was commenced and continued for 90 min. APD pressures were monitored throughout the infusion period; blood samples were taken, and the VAS administered every 15 min from t=0 min until t=90 min. At t=90 min, the infusion was terminated, and the subject was immediately extubated and offered a cold buffet-style meal, the composition of which is provided in Table 1. The amount of food offered was in excess of what the subject was expected to consume. The subject was given 30 min (i.e., t=90 min to t=120 min) to consume the meal and instructed to eat until comfortably full. After ingestion of the meal, the subject was monitored for a further 30 min, a further VAS was completed, and blood samples were taken at t=120 and 150 min. The intravenous cannula was then removed, and the subject was allowed to leave the laboratory.
Venous blood samples (10 ml) were collected in ice-chilled EDTA-treated tubes containing 400 kIU aprotinin (Trasylol, Bayer Australia) per millilitre of blood. Plasma was separated by centrifugation (3,200 rpm, 15 min, 4° C.) within 30 min of collection and stored at −70° C. until assayed.
Plasma GLP-1 concentrations (in pmol/l) were measured by radioimmunoassay using an adaptation of a previously published method (4) Antibody, supplied by Prof. […] It is likely that this antibody also reacts with the degraded form of GLP-1(9-36) amide. Intra-assay CV was 17% and interassay CV was 18%, with a sensitivity of 1.5 pmol/l.

[1] = Appetite perceptions (VAS scores) during and after 90 min intraduodenal infusion
Description: (§2) Each subject was studied on three occasions, separated by 3-10 days, to evaluate, in a double-blind, randomized fashion, the effects of intraduodenal infusions of 1) C12, 2) C10, or 3) control solution for 90 min on appetite perceptions, energy intake, APD pressures, and plasma CCK and GLP-1 concentrations.
as §1
Appetite sensations and energy intake. Subjective sensations of appetite, including hunger, fullness, desire to eat, prospective consumption (“how much food do you think you could eat if you were given a meal now?”), were assessed using validated VASs (Sensations of nausea and bloating were also assessed. Each VAS evaluated a sensation on a 100-mm horizontal line, where 0 represented “sensation is not felt at all” and 100 represented “sensation is felt the greatest.” Subjects were asked to place a vertical stroke on the 100-mm line in relation to what they were feeling at that particular point in time.
Baseline (“0”) values were calculated as the mean of values obtained at t=−15 and 0 min for VAS scores and plasma hormone concentrations and between t=−15 to 0 min for basal pyloric pressures, number, and amplitude of IPPWs, antral and duodenal PWs, and total number of duodenal PWSs. Basal pyloric pressures and the number and amplitude of IPPWs were expressed as means over 15-min segments during the 90-min infusion period. Numbers and amplitudes of antral and duodenal PWs were expressed as total number and mean values, respectively, for the 90-min infusion period. Duodenal PWSs were expressed as the total number of waves travelling over two, three, four, five, six, and seven channels during the 90-min infusion period. All data, except for plasma CCK and GLP-1 concentrations, were expressed as changes from baseline.
VAS scores, basal pyloric pressures, number and amplitude of IPPWs, and plasma hormone concentrations were analyzed by repeated-measures mixed model analysis of covariance (ANCOVA), with baseline as the covariate and time (0-90 min, at 15-min intervals) and treatment as within-subject factors. One-way ANOVA was used to assess the effect of treatment on energy intake, time taken to complete eating, total numbers and mean amplitudes of antral and duodenal PWs, and total number of duodenal PWSs. A logarithmic transformation was applied to nausea scores, antral amplitudes, and duodenal PWSs travelling 7.5 and 9 cm to better address the underlying assumptions of the models used (as these variables lacked normal distribution). If significance or near significance ([…]) was found, post hoc comparisons of least-squares means using Student's t-tests were performed. […]

[2] = Energy intake from the buffet meal after intraduodenal infusion
Description: as §2, §1
Energy intake from the buffet meal [energy consumption (in kJ) and macronutrient distribution (in % and g energy)] was analyzed using commercially available software (Food works 3.0, Xyris Software; Highgate Hill, Queensland, Australia). The time taken to finish the meal (in min) was also evaluated.

[3] = during 90 min intraduodenal infusion, 0.375 kcal/min, compared with control
[4] = buffet meal, compared with control

Compound: CCCCCCCCCCCC(=O)O [C12, lauric acid]
- delay until plasma GLP-1 concentrations rose (plasma GLP-1; after the start of infusion): 30 min
- plasma GLP-1 concentrations compared with control (plasma GLP-1; during infusion, C12 effect from 30 to 90 min): increased plasma GLP-1
- plasma GLP-1 concentrations compared with C10 (plasma GLP-1; from 45 to 90 min): increased plasma GLP-1
- plasma GLP-1 concentrations after meal ingestion (plasma GLP-1; t=120 and 150 min, compared with control): higher after the C12 infusion compared with both control
- GLP-1 level higher than after ingestion of the buffet meal after the control infusion (plasma GLP-1; versus level after ingestion of ~4,528 kJ): 40%
- fullness (VAS) after meal ingestion ([1]; at 120 and 150 min, after the buffet meal): less after C12 than C10
- mean score for nausea after termination of infusion ([1]; by 120 min (infusion terminated at 90 min)): close to baseline
- scores for bloating (VAS) ([1]; during 90 min intraduodenal infusion, 0.375 kcal/min): increased the scores for bloating
- nausea scores (VAS) [1, 3]: increased nausea scores compared with control
- scores for hunger (VAS) [1, 3]: lower compared with control
- scores for prospective consumption (VAS) [1, 3]: lower compared with control
- scores for desire to eat (VAS) ([1]; during 90 min intraduodenal infusion, 0.375 kcal/min, healthy males, compared with control): lower compared with control
- subjects reporting nausea ([1]; during C12 infusion 0.375 kcal/min, randomized study of 8 subjects): Five of the eight
- energy intake at buffet meal ([2]; after 90 min intraduodenal infusion 0.375 kcal/min, compared with control): dramatically decreased energy intake compared with control
- reduction of energy intake compared with the control infusion ([2]; all subjects, C12 total energy delivered 141 kJ): ~2,857 kJ
- amount of energy (in g) ingested from carbohydrate [2, 4]: reduced
- amount of energy (in g) ingested from fat [2, 4]: reduced
- amount of energy (in g) ingested from protein [2, 4]: reduced
- potency as suppressant of energy intake relative to C18:1 ([2]; isoenergetic amounts, intraduodenal, humans): more potent suppressant of energy intake
- time at which eating from the buffet meal was completed ([2]; mean±SE, not statistically significant): 13 ± 3.5 min
- energy intake in the absence of nausea ([2]; non-nauseated subjects): inhibited energy intake in the absence of nausea
- magnitude of the reduction in energy intake ([2]; subjects that did not experience nausea): ~1,801 kJ
- magnitude of the reduction in energy intake ([2]; subjects who reported nausea): ~3,840 kJ
